Source: patent US9828381B2, “Substituted pyrazolopyrimidines and method of use” (AbbVie Deutschland GmbH & Co. KG, priority 2015, dated 2017)

These molecules were tested against GABA-B receptor (Rattus norvegicus (Rat), UniProt O88871+Q9Z0U4) (assay: [35S]GTPgS binding assay, rat cortical membranes, in presence of EC25 GABA). Conditions: rat brain cortex membranes; in presence of 1 μM GABA (EC25); positive allosteric modulation.
Type: biochemical
Protocol: Preparation of Rat Brain Membranes for Native Receptor Assays
Membranes from rat brain cortex were prepared as described in detail by Olpe et al. and stored at concentrations of 1.66 mg/mL protein at −80° C. until required. (Olpe, H.-R, et al. Eur J Pharmacol 1990; 187: 27-38).
[^35S] GTPgS Binding Assay
The composition of the assay mixtures [in a final volume of 200 μL in 96-well U-bottom plates (Greiner) was as follows: 50 mM Tris-HCl buffer, pH 7.7, 10 mM MgCl2, 0.2 mM EGTA, 2 mM CaCl2, 100 mM NaCl, 20 µM guanosine 5′-diphosphate (Sigma), 0.3 nM [^35S]GTPgS (1250 Ci/mmol (PerkinElmer)), and the test compounds at increasing concentrations (from 10 nM up to […]), […] of rat cortical membranes, and a concentration of […], that has been observed in previous experiments to correspond to the EC25, a concentration that gives 25% of the maximal response of GABA. The samples were incubated at room temperature for 60 minutes on a shaker. The incubation was stopped by rapid vacuum filtration over glass-fiber filter plates (UniFilter-96 well, GF/B membrane plates, PerkinElmer) using a 96-well plate harvester (TOMTEK© Harvester). The UniFilter plate was washed five times with ice-cold wash buffer (50 mM Tris-HCl buffer, pH 7.7, 10 mM MgCl2, and 100 mM NaCl. After filtration the plate was dried for 90 minutes at 55° C. The plates were closed on the bottom with black sealing membranes, and liquid scintillation cocktail (35 μL, Betaplate Scint, PerkinElmer) was added to each well. After sealing the top of the plate, an additional incubation step of 90 minutes at room temperature followed before measuring the plate. The amount of membrane-bound [^35S]GTPgS was measured using a 96-well plate reader (Microbeta®, PerkinElmer). Nonspecific binding was measured in the presence of unlabeled 10 μM of GTPgS (Millipore) and without GABA. Basal binding was measured in the absence of 1 μM GABA, and maximal binding was measured in the presence of GABA using 1 mM GABA concentrations.
Data analysis. The concentration-response curves of compounds of the present disclosure in the presence of EC25 of GABA-B receptor agonist were generated using the GraphPad Prism® program (GraphPad Software, San Diego, Calif.). Data was normalized using basal binding as 0% and maximal binding as 100%. The curves were fitted by nonlinear regression allowing determination of EC50 values from sigmoidal dose-response curves. Each curve was performed using triplicate sample per date point and 10 concentrations.

Sequence of GABA-B receptor (Q9Z0U4 17-960): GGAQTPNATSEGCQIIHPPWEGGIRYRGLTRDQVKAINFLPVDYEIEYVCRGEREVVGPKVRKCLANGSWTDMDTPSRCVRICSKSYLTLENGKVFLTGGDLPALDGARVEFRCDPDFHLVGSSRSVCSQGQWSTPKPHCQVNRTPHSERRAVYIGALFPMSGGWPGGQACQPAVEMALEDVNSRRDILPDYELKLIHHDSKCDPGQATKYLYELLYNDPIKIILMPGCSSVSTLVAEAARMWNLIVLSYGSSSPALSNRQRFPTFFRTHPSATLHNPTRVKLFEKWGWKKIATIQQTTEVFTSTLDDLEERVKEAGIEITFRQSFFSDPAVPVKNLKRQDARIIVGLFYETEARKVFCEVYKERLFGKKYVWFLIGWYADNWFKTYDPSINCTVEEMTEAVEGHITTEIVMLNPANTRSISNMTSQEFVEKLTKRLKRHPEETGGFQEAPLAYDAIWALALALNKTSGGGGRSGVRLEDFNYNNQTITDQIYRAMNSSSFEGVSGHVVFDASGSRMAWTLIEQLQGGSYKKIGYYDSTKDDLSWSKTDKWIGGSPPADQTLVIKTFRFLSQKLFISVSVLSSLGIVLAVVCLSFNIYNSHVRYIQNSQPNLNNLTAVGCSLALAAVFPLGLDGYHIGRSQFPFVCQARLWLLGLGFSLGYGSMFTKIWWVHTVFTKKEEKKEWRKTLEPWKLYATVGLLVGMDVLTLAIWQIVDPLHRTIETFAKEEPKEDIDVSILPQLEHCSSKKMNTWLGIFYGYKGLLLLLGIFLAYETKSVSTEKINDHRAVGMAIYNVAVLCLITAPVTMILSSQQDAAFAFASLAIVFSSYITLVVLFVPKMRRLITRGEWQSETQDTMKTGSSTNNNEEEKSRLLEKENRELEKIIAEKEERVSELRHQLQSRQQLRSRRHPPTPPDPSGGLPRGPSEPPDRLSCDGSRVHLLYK
Sequence of GABA-B receptor (O88871 41-940): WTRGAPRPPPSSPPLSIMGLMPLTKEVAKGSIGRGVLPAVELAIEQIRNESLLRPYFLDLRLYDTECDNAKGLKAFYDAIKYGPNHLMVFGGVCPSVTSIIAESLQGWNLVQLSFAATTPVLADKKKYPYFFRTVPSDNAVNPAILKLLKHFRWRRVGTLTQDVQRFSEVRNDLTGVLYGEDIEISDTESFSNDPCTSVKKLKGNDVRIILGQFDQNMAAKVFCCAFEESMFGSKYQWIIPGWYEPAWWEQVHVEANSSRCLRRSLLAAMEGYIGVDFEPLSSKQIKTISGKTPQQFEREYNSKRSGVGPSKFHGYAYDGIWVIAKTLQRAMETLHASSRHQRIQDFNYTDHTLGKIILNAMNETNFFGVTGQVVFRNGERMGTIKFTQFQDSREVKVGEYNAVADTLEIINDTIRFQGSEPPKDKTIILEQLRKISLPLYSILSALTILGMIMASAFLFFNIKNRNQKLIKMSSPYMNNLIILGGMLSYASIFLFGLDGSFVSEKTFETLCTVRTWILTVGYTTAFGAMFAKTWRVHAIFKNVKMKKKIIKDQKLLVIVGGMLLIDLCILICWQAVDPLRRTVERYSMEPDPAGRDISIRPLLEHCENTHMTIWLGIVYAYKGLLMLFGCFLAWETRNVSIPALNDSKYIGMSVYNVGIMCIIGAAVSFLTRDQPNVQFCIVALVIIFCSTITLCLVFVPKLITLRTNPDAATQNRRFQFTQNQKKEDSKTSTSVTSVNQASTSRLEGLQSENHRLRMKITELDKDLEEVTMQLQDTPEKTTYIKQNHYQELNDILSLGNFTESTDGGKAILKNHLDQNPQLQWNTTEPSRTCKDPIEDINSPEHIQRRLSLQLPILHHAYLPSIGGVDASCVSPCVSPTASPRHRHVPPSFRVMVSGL

Row | Compound | EC50 [nM]
1 | Cc1cc(N2CCC2)n2nc(C(C)c3ccc(Cl)cc3)cc2n1 (stereo not drawn) [Example 2-12, 7-(azetidin-1-yl)-2-[1-(4-chlorophenyl)ethyl]-5-methylpyrazolo[1,5-a]pyrimidine] | 2820
2 | Cc1cc(N2CC3(CCOCC3)C2)n2nc(C(C)c3ccc(Cl)cc3)cc2n1 (stereo not drawn) [Example 2-13, 2-[1-(4-chlorophenyl)ethyl]-5-methyl-7-(7-oxa-2-azaspiro[3.5]non-2-yl)pyrazolo[1,5-a]pyrimidine] | 446
3 | Cc1cc(NC2CC(F)C2)n2nc(C(C)c3ccc(Cl)cc3)cc2n1 (stereo not drawn) [Example 2-14, 2-[1-(4-chlorophenyl)ethyl]-N-(3-fluorocyclobutyl)-5-methylpyrazolo[1,5-a]pyrimidin-7-amine] | 165
4 | CC[C@@H]1CN(c2cc(C)nc3cc(C(C)c4ccc(Cl)cc4)nn23)[C@H]1C(=O)O (stereo partly drawn) [Example 2-15, (2R,3R)-1-{2-[1-(4-chlorophenyl)ethyl]-5-methylpyrazolo[1,5-a]pyrimidin-7-yl}-3-ethylazetidine-2-carboxylic acid] | 3930
5 | Cc1cc(NCC2CC(F)(F)C2)n2nc(C(C)c3ccc(Cl)cc3)cc2n1 (stereo not drawn) [Example 2-16, 2-[1-(4-chlorophenyl)ethyl]-N-[(3,3-difluorocyclobutyl)methyl]-5-methylpyrazolo[1,5-a]pyrimidin-7-amine] | 586
6 | CC(=O)N[C@H]1CCN(c2cc(C)nc3cc(C(C)c4ccc(Cl)cc4)nn23)C1 (stereo partly drawn) [Example 2-17, N-[(3S)-1-{2-[1-(4-chlorophenyl)ethyl]-5-methylpyrazolo[1,5-a]pyrimidin-7-yl}pyrrolidin-3-yl]acetamide] | 2180
7 | Cc1cc(N2CCC3(CCC3O)C2)n2nc(C(C)c3ccc(Cl)cc3)cc2n1 (stereo not drawn) [Example 2-20, 6-{2-[1-(4-chlorophenyl)ethyl]-5-methylpyrazolo[1,5-a]pyrimidin-7-yl}-6-azaspiro[3.4]octan-1-ol] | 93
8 | Cc1cc(NC2CC(F)(F)C2)n2nc(C(C)c3ccc(Cl)cc3)cc2n1 (stereo not drawn) [Example 2-21, 2-(1-(4-chlorophenyl)ethyl)-N-(3,3-difluorocyclobutyl)-5-methylpyrazolo[1,5-a]pyrimidin-7-amine] | 394
9 | CC[C@@H]1CCCCN1c1cc(C)nc2cc(C(C)c3ccc(Cl)cc3)nn12 (stereo partly drawn) [Example 2-22, 2-[1-(4-chlorophenyl)ethyl]-7-[(2R)-2-ethylpiperidin-1-yl]-5-methylpyrazolo[1,5-a]pyrimidine] | 70
10 | CC(=O)N[C@@H]1CCN(c2cc(C)nc3cc(C(C)c4ccc(Cl)cc4)nn23)C1 (stereo partly drawn) [Example 2-23, N-[(3R)-1-{2-[1-(4-chlorophenyl)ethyl]-5-methylpyrazolo[1,5-a]pyrimidin-7-yl}pyrrolidin-3-yl]acetamide] | 2730
11 | CCC(c1ccc(Cl)cc1)c1cc2nc(C)cc(N3CCCCC3CCO)n2n1 (stereo not drawn) [Example 3-1, 2-(1-{2-[1-(4-chlorophenyl)propyl]-5-methylpyrazolo[1,5-a]pyrimidin-7-yl}piperidin-2-yl)ethanol] | 8
12 | CCC(c1ccc(Cl)cc1)c1cc2nc(C)cc(N3CCCC(F)(F)C3)n2n1 (stereo not drawn) [Example 3-2, 2-[1-(4-chlorophenyl)propyl]-7-(3,3-difluoropiperidin-1-yl)-5-methylpyrazolo[1,5-a]pyrimidine] | 14
13 | Cc1cc(N2CCCCC2CCO)n2nc(C(c3ccc(Cl)cc3)C(C)C)cc2n1 (stereo not drawn) [Example 4-1, 2-(1-{2-[1-(4-chlorophenyl)-2-methylpropyl]-5-methylpyrazolo[1,5-a]pyrimidin-7-yl}piperidin-2-yl)ethanol] | 5
14 | Cc1cc(N2CCCC(F)(F)C2)n2nc(C(c3ccc(Cl)cc3)C(C)C)cc2n1 (stereo not drawn) [Example 4-2, 2-[1-(4-chlorophenyl)-2-methylpropyl]-7-(3,3-difluoropiperidin-1-yl)-5-methylpyrazolo[1,5-a]pyrimidine] | 9
15 | CCCC(c1ccc(Cl)cc1)c1cc2nc(C)cc(N3CCCCC3CCO)n2n1 (stereo not drawn) [Example 5-1, 2-(1-{2-[1-(4-chlorophenyl)butyl]-5-methylpyrazolo[1,5-a]pyrimidin-7-yl}piperidin-2-yl)ethanol] | 3
16 | CCCC(c1ccc(Cl)cc1)c1cc2nc(C)cc(N3CCCC(F)(F)C3)n2n1 (stereo not drawn) [Example 5-2, 2-[1-(4-chlorophenyl)butyl]-7-(3,3-difluoropiperidin-1-yl)-5-methylpyrazolo[1,5-a]pyrimidine] | 7
17 | Cc1cc(N2CCCCC2CCO)n2nc(Cc3cccc(C(F)(F)F)c3)cc2n1 (stereo not drawn) [Example 6-1, 2-(1-{5-methyl-2-[3-(trifluoromethyl)benzyl]pyrazolo[1,5-a]pyrimidin-7-yl}piperidin-2-yl)ethanol] | 1820
18 | Cc1cc(N2CCCCC2CCO)n2nc(CC34CC5CC(CC(C5)C3)C4)cc2n1 (stereo not drawn) [Example 7-1, 2-{1-[5-methyl-2-(tricyclo[3.3.1.1^3′]dec-1-ylmethyl)pyrazolo[1,5-a]pyrimidin-7-yl]piperidin-2-yl}ethanol] | 1080
19 | Cc1cc(N2CC[C@H]2C(N)=O)n2nc(C(C)c3ccc(C(F)(F)F)cc3)cc2n1 (stereo partly drawn) [Example 8-1, (2S)-1-(5-methyl-2-{1-[4-(trifluoromethyl)phenyl]ethyl}pyrazolo[1,5-a]pyrimidin-7-yl)azetidine-2-carboxamide] | > 10000
20 | Cc1cc(N2CCCCC2CCO)n2nc(C(C)c3ccc(C(F)(F)F)cc3)cc2n1 (stereo not drawn) [Example 8-2, 2-[1-(5-methyl-2-{1-[4-(trifluoromethyl)phenyl]ethyl}pyrazolo[1,5-a]pyrimidin-7-yl)piperidin-2-yl]ethanol] | 87
21 | Cc1cc(N2CCC3(COC3)C2)n2nc(C(C)c3ccc(C(F)(F)F)cc3)cc2n1 (stereo not drawn) [Example 8-3, 5-methyl-7-(2-oxa-6-azaspiro[3.4]oct-6-yl)-2-{1-[4-(trifluoromethyl)phenyl]ethyl}pyrazolo[1,5-a]pyrimidine] | 420
22 | Cc1cc(N2CC3(CCOCC3)C2)n2nc(C(C)c3ccc(C(F)(F)F)cc3)cc2n1 (stereo not drawn) [Example 8-4, 5-methyl-7-(7-oxa-2-azaspiro[3.5]non-2-yl)-2-{1-[4-(trifluoromethyl)phenyl]ethyl}pyrazolo[1,5-a]pyrimidine] | 827
23 | Cc1cc(N2CCC[C@@H](O)C2)n2nc(C(C)c3ccc(C(F)(F)F)cc3)cc2n1 (stereo partly drawn) [Example 8-5, (3R)-1-(5-methyl-2-{1-[4-(trifluoromethyl)phenyl]ethyl}pyrazolo[1,5-a]pyrimidin-7-yl)piperidin-3-ol] | 365
24 | Cc1cc(NC2CC(F)C2)n2nc(C(C)c3ccc(C(F)(F)F)cc3)cc2n1 (stereo not drawn) [Example 8-6, N-(3-fluorocyclobutyl)-5-methyl-2-{1-[4-(trifluoromethyl)phenyl]ethyl}pyrazolo[1,5-a]pyrimidin-7-amine] | 509
25 | CC(=O)N[C@H]1CCN(c2cc(C)nc3cc(C(C)c4ccc(C(F)(F)F)cc4)nn23)C1 (stereo partly drawn) [Example 8-7, N-[(3S)-1-(5-methyl-2-{1-[4-(trifluoromethyl)phenyl]ethyl}pyrazolo[1,5-a]pyrimidin-7-yl)pyrrolidin-3-yl]acetamide] | 2000
26 | Cc1cc(NC2(C)CC2)n2nc(C(C)c3ccc(C(F)(F)F)cc3)cc2n1 (stereo not drawn) [Example 8-8, 5-methyl-N-(1-methylcyclopropyl)-2-{1-[4-(trifluoromethyl)phenyl]ethyl}pyrazolo[1,5-a]pyrimidin-7-amine] | 746
27 | Cc1cc(N2CCCCC2CO)n2nc(C(C)c3ccc(C(F)(F)F)cc3)cc2n1 (stereo not drawn) [Example 8-9, [1-(5-methyl-2-{1-[4-(trifluoromethyl)phenyl]ethyl}pyrazolo[1,5-a]pyrimidin-7-yl)piperidin-2-yl]methanol] | 344
28 | Cc1cc(N2CC[C@H]2C(=O)O)n2nc(C(C)c3ccc(C(F)(F)F)cc3)cc2n1 (stereo partly drawn) [Example 8-10, (2S)-1-(5-methyl-2-{1-[4-(trifluoromethyl)phenyl]ethyl}pyrazolo[1,5-a]pyrimidin-7-yl)azetidine-2-carboxylic acid] | > 10000
29 | Cc1cc(N2CCC(F)CC2)n2nc(C(C)c3ccc(C(F)(F)F)cc3)cc2n1 (stereo not drawn) [Example 8-11, 7-(4-fluoropiperidin-1-yl)-5-methyl-2-{1-[4-(trifluoromethyl)phenyl]ethyl}pyrazolo[1,5-a]pyrimidine] | 378
30 | Cc1cc(N2CCCC(F)C2)n2nc(C(C)c3ccc(C(F)(F)F)cc3)cc2n1 (stereo not drawn) [Example 8-12, 7-(3-fluoropiperidin-1-yl)-5-methyl-2-{1-[4-(trifluoromethyl)phenyl]ethyl}pyrazolo[1,5-a]pyrimidine] | 370
